In patent publication US12122812B2, “Method for preparing biomaterial having selectively functionalized tyrosine, biomaterial having selectively functionalized tyrosine, and pharmaceutical composition containing same as active ingredient” (SEOUL NATIONAL UNIVERSITY R&DB FOUNDATION, priority 2018, dated 2024):

What was measured:
HeLa cells = test: Cytotoxicity by cell counting kit-8 (CCK-8) viability test; type: cell-based; settings: 0.1 to 100 μM
Protocol: The cytotoxicity was evaluated in HeLa cells by cell counting kit-8 (CCK-8) viability test.
Particularly, HeLa cells were seeded in a 96-well tissue culture plate at the density of 5,000 cells/well and cultured in 100 μL of DMEM (Dulbecco's Modified Eagle's Medium) supplemented with 10% FBS (fetal bovine serum) for 24 hours. After replacing the medium with 90 μL of a fresh medium, 10 μl of the compound prepared in Preparative Example 4 of various concentrations (final 0.5% DMSO) was added to each well of the plate, and the cells were further cultured for 24 hours and 48 hours. The cells were washed 3 times with a fresh medium to remove extracellular samples, and 100 μl of a fresh medium containing 10% CCK-8 was added to each well of the plate. After incubating the cells at 37° C. for 2 hours, OD450 was measured with a microplate reader (Molecular Devices Co., Menlo Park, Calif., USA). Only the background signal of CCK-8 was subtracted from all the samples. The cell viability was evaluated as the percentage of absorbance of the untreated cells to the control.

Balb/c mice = test: Hematopoietic function of PEGylated rhEPO: hematocrit (HCT) in mice; type: in vivo; settings: normal male Balb/c mice, intravenous 20 μg/kg every 3 days
Protocol: In order to confirm whether the PEGylated rhEPO obtained in Example 1 maintained the hematopoietic function even after the PEGylation, the following experiment was performed, and the results are shown in FIG. 6.
The rhEPO without PEGylation and the PEGylated rhEPO (PEG-rhEPO) prepared in Example 1 were intravenously injected into Balb/c mice at a dose of 20 μg/kg every 3 days. In vivo activities were compared by measuring hematocrit (HCT), a reliable method for quantification of erythrocytes. As a control, phosphate buffered saline (PBS) was used.
Particularly, normal male Balb/c mice were purchased from Orient Bio Inc. (South Korea). The weight of the mice was 23-25 g, and the mice were housed in groups of 3-4 mice in one cage. Food and water were supplied freely (ad libitum), and each cage was allowed to have a 12-hour light/dark cycle under the conventional animal experiment system of KPC, Korea.
Each sample (rhEPO or PEG-rhEPO) ([…] in DPBS) was injected intravenously into normal male Balb/c mice (50 μL/mouse) every 3 days for 2 weeks. The same amount of DPBS was administered to the control group. A total of 21 mice were used in the experiment. Blood samples were collected every 3 days including day 0 to evaluate the hematopoietic effect. Hematocrit was evaluated by measuring the volume of the packed cells obtained by centrifugation performed immediately after the blood collection. Delta hematocrit (DHematocrit) was determined by the difference between the initial hematocrit for each mouse (day 0) and the hematocrit at each time point.

| Compound | Cytotoxicity (cell viability, CCK-8) (HeLa cells; 24 hours) | Cytotoxicity (cell viability, CCK-8) (HeLa cells; 48 hours) | HCT level compared with rhEPO without PEGylation (statistical analysis) (Balb/c mice) | HCT level (hematocrit) over time (Balb/c mice; blood sampled every 3 days for 15 days) | HCT level compared with control group (statistical analysis) (Balb/c mice; control PBS/DPBS) |
| --- | --- | --- | --- | --- | --- |
| N[C@@H](Cc1ccc(OS(=O)(=O)Oc2ccc(C[C@H](N)C(=O)O)cc2)cc1)C(=O)O [Preparative Example 4, (2S,2'S)-3,3′-((sulfonylbis(oxy))bis(4,1-phenylene))bis(2-aminopropanoic Acid)] | did not show cytotoxicity | did not show cytotoxicity |  |  |  |
| PEG-rhEPO: PEGylated recombinant human erythropoietin, PEG bound by sulfate bond to Tyr-49 |  |  | no significant difference | increased for 15 days | clear difference |
